The subject of one test is Bacillus pumilus. Nature of the test: Antibacterial activity against Bacillus pumilus NCTC 10327. It is filed as functional.
For a further test, the system named is Bacillus subtilis. Nature of the test: Antibacterial activity against Bacillus subtilis NCTC 10452. It counts as functional.
A further test deals with Staphylococcus aureus. Nature of the test: Antibacterial activity against Staphylococcus aureus NCTC 6571. It is filed as functional.
The subject of the next test is Enterococcus faecalis. The experiment in a line: Antibacterial activity against Streptococcus faecalis NCTC 775. It is filed as functional.
A further test concerns Escherichia coli. The experiment in a line: Antibacterial activity against Escherichia coli NCTC 9001 at 200 ug/ml. It counts as functional, organism-based.
A further test concerns Pseudomonas aeruginosa. Nature of the test: Antibacterial activity against Pseudomonas aeruginosa NCTC 6750 at 200 ug/ml. It counts as functional, organism-based.

Structures are written as SMILES. ≈ marks a conversion by molar mass, not a printed value. Calls of active or inactive are those of the source. The rule behind the calls is not given here.

For the molecule `CN[C@@H]1[C@H](O[C@H]2[C@H](O[C@H]3[C@H](O)[C@@H](O)[C@H](N=C(N)N)[C@@H](O)[C@@H]3N=C(N)N)O[C@@H](C)[C@]2(O)C=O)O[C@@H](CO)[C@H](O)[C@H]1O.CN[C@@H]1[C@H](O[C@H]2[C@H](O[C@H]3[C@H](O)[C@@H](O)[C@H](N=C(N)N)[C@@H](O)[C@@H]3N=C(N)N)O[C@@H](C)[C@]2(O)C=O)O[C@@H](CO)[C@H](O)[C@H]1O.O=S(=O)(O)O.O=S(=O)(O)O.O=S(=O)(O)O` [STREPTOMYCIN SULFATE], the minimal inhibitory concentration (MIC) against Bacillus pumilus is 0.94 µg/mL; with Bacillus subtilis, 3.75 µg/mL; in the test on Staphylococcus aureus, 3.75 µg/mL; with Enterococcus faecalis, 15 µg/mL.

As for `C=C(CC[C@@H]1C(C)(C)CCC[C@]1(C)O)C(C)=O`, the MIC with Bacillus pumilus amounted to 50 µg/mL (≈ 210 µM); in the test with Bacillus subtilis, 100 µg/mL (≈ 420 µM); with Staphylococcus aureus, 50 µg/mL (≈ 210 µM); against Enterococcus faecalis it was 150 µg/mL (≈ 629 µM). Besides, the outcome in the test with Escherichia coli and in the test on Pseudomonas aeruginosa was inactive.

(Values after ChEMBL document CHEMBL1147336, “A new antibacterial sesquiterpene from Premna oligotricha” (1993).)
